EP3521435A1, “A HIGH STRINGENCY SELECTION SYSTEM FOR PROTEIN EXPRESSION IN PROLINE-AUXOTROPHIC CELLS” (Bayer AG, priority 2018, dated 2019)

Columns and labels:
CHO-K1 cells [1] = assay: Flow cytometric analysis of GFP expression (MFI, high fluorescing cells) in stably selected cell populations; type: cell-based, Chinese hamster; settings: day 15 post-transfection, pJF1555
Protocol: (§1) To efficiently test the impact of different procedures on improving selection stringency, experimental testing in stable cell populations was performed. As test molecules, enhanced green fluorescent protein (GFP) as well as a human IgG1 were chosen. CHO-K1 cells adapted to growth in suspension in defined medium were obtained from SAFC and cultivated in EX-CELL CD CHO Fusion medium (SAFC 14365C). Custom-made EX-CELL CD CHO Fusion medium without L-Proline (Pro) and without L-Ornithine (Orn) ("proline-free medium") was obtained from SAFC. The expression vector system was based on modified versions of "CET 1019 AS-puro-SceI" and "CET 1019 AD-puro-SceI" for GFP and human IgG1, respectively, from Merck-Millipore, containing the Puromycin selection marker (Puromycin N-acetyl-transferase) known to exert a high selection stringency. To minimize variations in cell populations derived from using different transfections or different vectors, the first series of experiments were conducted using vectors into which a P5CS expression cassette was cloned upstream of a UCOE element, in addition to the Puromycin selection marker present downstream of a gene of interest. This way, it was possible to pool different transfections using the same vector to obtain a common starting point, and split the mixture according to different selection conditions, minimizing any variations that are not due to selection conditions themselves. Expression of long and short isoform of murine P5CS (Protein: Delta-1-pyrroline-5-carboxylate synthase; Gene: Aldh18a1; UniProtKB accession number: Q9Z110-1 & Q9Z110-2) was driven by a SV40 promoter. A SV40 polyadenylation sequence was used at the 3' end of the gene. More details can be found in Table 1. Typically, CHO cells were cultivated in EX-CELL CD CHO Fusion medium containing 6 mM GlutaMAX (Thermo Fisher, 35050-38) ("CD-Fusion medium") at 37 °C with 5% CO2. Cells were grown to logarithmic phase under shaking conditions for transfections. 1e7 cells/cuvette were transfected using nucleofection (Amaxa Nucleofector II, following the manufacturer's recommendations) with 5 µg of linearized DNA. After transfection, cells were taken up in 1 ml medium and transferred into 1 well of a 6 well microtiter plate (MTP) already containing 1 ml medium. The cells were incubated for 24 h without shaking, after which 9 ml medium were added and cells were washed (either in standard or proline-free medium). Multiple transfections were pooled, if applicable. Cells were adjusted to 2e5 viable cells/ml and 10 ml were transferred to T-25 flasks. Reference cell populations were selected using 10 µg/ml Puromycin in CD-Fusion medium. For P5CS-based selection, EX-CELL CD CHO Fusion medium (custom-made, SAFC) containing 6 mM GlutaMAX without proline and without ornithine was used ("proline-free" or "CD-Fusion w/o Pro" medium), with or without additional selection pressure.
(§2) Cell viability of the different populations was monitored over time. As soon as cell populations appeared to recover from selection pressure, cells were transferred to Shake Flask or TubeSpins for expansion in suspension under shaking conditions. Subsequently, stable cell populations transfected with IgG were seeded at 2e5 viable cells/ml for batch fermentation without selection pressure (i.e. standard CD-Fusion medium containing proline and no other selective agents). The cells were cultivated for 5-10 days, viable cell densities and productivity were monitored over time. IgG titers were determined using Poros A-HPLC method. Typically, final batch titers were recorded at a time point at which majority of cultures had around 70% viability. Stable cell populations transfected with GFP vector were subjected to analysis by flow cytometry using Guava easyCyte 8HT Benchtop Flow Cytometer (Millipore). 250 µl of cell culture were transferred to 96 MTP and washed with PBS. Dead cells were excluded from analysis using propidium iodide (PI). […]

CHO-K1 cells [2] = assay: Cell viability post-transfection of transfected cell populations under selection conditions; type: cell-based, Chinese hamster; settings: pJF1555; for concentration at which recovery kinetics were affected: Table 8
Protocol: as §1, §2

[3] = CD-Fusion w/o Pro + 0.1 mM Thiazolidine-2-carboxylic acid
[4] = CD-Fusion w/o Pro + 0.5 mM Thiazolidine-2-carboxylic acid
[5] = CD-Fusion w/o Pro + 1 mM Thiazolidine-2-carboxylic acid
[6] = CD-Fusion w/o Pro + 2.5 mM Thiazolidine-2-carboxylic acid
[7] = CD-Fusion w/o Pro + 10 mM Thiazolidine-2-carboxylic acid
[8] = CD-Fusion w/o Pro + 0.25 mM cis-4-Hydroxy-L-Proline
[9] = CD-Fusion w/o Pro + 0.5 mM cis-4-Hydroxy-L-Proline
[10] = CD-Fusion w/o Pro + 2.5 mM cis-4-Hydroxy-L-Proline
[11] = CD-Fusion w/o Pro + 5 mM cis-4-Hydroxy-L-Proline
[12] = CD-Fusion w/o Pro + 10 mM cis-4-Hydroxy-L-Proline
[13] = CD-Fusion w/o Pro + 5 mM trans-4-Hydroxy-L-Proline
[14] = CD-Fusion w/o Pro + 10 mM trans-4-Hydroxy-L-Proline

## O=C(O)C1NCCS1 (stereo not shown) [Thiazolidine-2-carboxylic acid]
CHO-K1 cells [1]; [3]
  Frequency of high fluorescing cells: 4.9%
CHO-K1 cells [1]; [4]
  Frequency of high fluorescing cells: 2.3%
CHO-K1 cells [1]; [5]
  Frequency of high fluorescing cells: 0.0%
CHO-K1 cells [1]; [6]
  Frequency of high fluorescing cells: 0.0%
CHO-K1 cells [1]; [7]
  Frequency of high fluorescing cells: 0.0%
CHO-K1 cells [2]; [3]
  Viability on day 12 post-transfection: 87%
CHO-K1 cells [2]; [4]
  Viability on day 12 post-transfection: 78%
CHO-K1 cells [2]; [5]
  Viability on day 12 post-transfection: 11%
CHO-K1 cells [2]; [6]
  Viability on day 12 post-transfection: 15%
CHO-K1 cells [2]; [7]
  Viability on day 12 post-transfection: 16%
CHO-K1 cells [2]; proline-free medium
  concentration at which recovery kinetics were affected: 0.5 to 1 mM

## O=C(O)[C@@H]1C[C@H](O)CN1 [cis-4-Hydroxy-L-Proline]
CHO-K1 cells [1]; [8]
  Frequency of high fluorescing cells: 3.3%
CHO-K1 cells [1]; [9]
  Frequency of high fluorescing cells: 1.7%
CHO-K1 cells [1]; [10]
  Frequency of high fluorescing cells: 1.4%
CHO-K1 cells [1]; [11]
  Frequency of high fluorescing cells: 0.0%
CHO-K1 cells [1]; [12]
  Frequency of high fluorescing cells: 0.0%
CHO-K1 cells [2]; [8]
  Viability on day 12 post-transfection: 89%
CHO-K1 cells [2]; [9]
  Viability on day 12 post-transfection: 88%
CHO-K1 cells [2]; CD-Fusion w/o Pro + 1 mM cis-4-Hydroxy-L-Proline
  Viability on day 12 post-transfection: 65%
CHO-K1 cells [2]; [10]
  Viability on day 12 post-transfection: 13%
CHO-K1 cells [2]; [11]
  Viability on day 12 post-transfection: 13%
CHO-K1 cells [2]; [12]
  Viability on day 12 post-transfection: 20%
CHO-K1 cells [2]; proline-free medium
  concentration at which recovery kinetics were affected: ≥ 1 mM

## O=C(O)[C@@H]1C[C@@H](O)CN1 [trans-4-Hydroxy-L-Proline]
CHO-K1 cells [1]; [13]
  Frequency of high fluorescing cells: 2.6%
CHO-K1 cells [1]; [14]
  Frequency of high fluorescing cells: 2.6%
CHO-K1 cells [2]; [13]
  Viability on day 12 post-transfection: 84%
CHO-K1 cells [2]; [14]
  Viability on day 12 post-transfection: 84%
CHO-K1 cells [2]; up to 10 mM, proline-free medium
  selection pressure: no increased selection pressure observable
